Reference: article PMC4528135, “Kinetic Investigations of the Role of Factor Inhibiting Hypoxia-inducible Factor (FIH) as an Oxygen Sensor” (The Journal of Biological Chemistry, 2015)
Values joined by “and” are separate entries in the source; they are usually repeats but may differ in a detail not shown here. Equal values may be shown once.

What was measured:
[1] = CD spectroscopy and thermal denaturation of 2CA and 3CA; type: physicochemical; settings: for secondary structure in solution by circular dichroism: 0.2 mg/ml protein in 10 mM sodium phosphate buffer pH 8.0 (Fig. 7), thermal denaturation 10 to 90 °C
Experimental: CD spectra were recorded using a Chirascan CD/fluorimeter (Applied Photophysics) spectrometer. Measurements were carried out at 20 °C in a 0.1 cm path length quartz cuvette, with protein concentration of 0.125 mg/ml in 5 mM sodium phosphate buffer (pH 8.0). Spectra were recorded in the wavelength range of 260–190 nm at 0.5-nm intervals, and each spectrum represents an average of three scans. Spectra were baseline-corrected by subtraction of the buffer spectrum. Data were expressed as the mean residue ellipticity ([θ], degrees·cm^2·dmol^−1). Thermal denaturation experiments were performed under the same conditions. The ellipticity at 220 nm (θ220) was monitored from 10 to 90 °C.
FIGURE 7. CD spectroscopic comparison of 2CA and 3CA secondary structure. Thermal denaturation experiments of 2CA and 3CA are shown. Conditions were as follows. 0.2 mg/ml protein in 10 mM sodium phosphate buffer (pH 8.0) was studied at 222 nm for thermal denaturation experiments between 10 and 90 °C. A, melting curves of 2CA. B, spectra of 2CA between 260 and 190 nm at 10 °C, after heating to 90 °C and after cooling again to 10 °C. C, melting curves of 3CA. D, spectra of 3CA between 260 and 190 nm at 10 °C, after heating to 90 °C, where the α-helical structure is predominantly lost, and after cooling again to 10 °C, where the structure is largely regained.

PHD2 = target: T1, PHD2 (Homo sapiens, UniProt Q9GZT9); assay: Stopped-flow UV-visible spectroscopy, PHD2·Fe(II)·2OG·substrate + O2; type: biochemical; settings: anaerobic 0.8 mM PHD2, 1 mM peptide, 5 mM 2OG, 50 mM HEPES pH 7.5, mixed 1:1 with O2-saturated buffer at 5 °C, double exponential fit; for Stopped-flow, 520 nm (PHD2) kfall phase: traces average of triplicate
T1 construct: The catalytic domain of PHD2 (residues 181–426) was purified as described; made in house
Experimental: Stopped-flow UV-visible spectroscopy experiments were performed as described previously ([32], [42]). […] The reaction was observed over 1000 s using a photodiode array detector, and kinetic traces were analyzed using Origin version 8.51 software. Data were fitted with a double exponential function (y = A1 × exp(−kriset) + A2 × exp(−kfallt) + y0). The A1, A2, and y0 parameters were restricted with upper limits to match the observed amplitude/offset changes.
Previously reported pre-steady-state kinetic studies on PHD2 focused on its reaction with CODD HIF-1α 19-mer peptide ([38], [42]); there is no reported information on the rates of PHD2 reaction with O2 in the presence of NODD HIF-1α or HIF-2α substrates. To ascertain whether a slow reaction with O2 under pre-steady-state conditions is common to PHD2-catalyzed hydroxylation of both CODD and NODD, we investigated the reaction of PHD2 with NODD substrates in comparison with CODD for both HIF-1α and HIF-2α. Pre-steady-state reactions of PHD2 were initiated by rapid mixing of anaerobic PHD2·Fe(II)·2OG·HIF-α complexes with O2-saturated buffer at 5 °C. Reactions were initially observed using a photodiode array detector, and difference spectra (in comparison with the reaction with O2-free buffer) were subsequently analyzed.
FIGURE 5. Pre-steady-state kinetics of PHD2-catalyzed HIF-1/2α hydroxylation. […] B, stopped-flow kinetic traces at 520 nm showing absorbance changes in control experiments: Fe(II) only, mix of Fe(II) and 2OG, reaction of PHD2·Fe(II)·2OG complex with O2 in the absence of CODD; reaction of PHD2·Fe(II)·N-oxalylglycine (NOG)·CODD complex with O2. N-Oxalylglycine is an inhibitor of 2OG oxygenases. […] The kinetic traces represent the average of triplicate assays. E, HIF-1/2α peptide hydroxylation, as determined by MALDI-TOF-MS. Reactions were quenched with 1% CF3CO2H at defined time points.

T1 sequence (Q9GZT9 181-426): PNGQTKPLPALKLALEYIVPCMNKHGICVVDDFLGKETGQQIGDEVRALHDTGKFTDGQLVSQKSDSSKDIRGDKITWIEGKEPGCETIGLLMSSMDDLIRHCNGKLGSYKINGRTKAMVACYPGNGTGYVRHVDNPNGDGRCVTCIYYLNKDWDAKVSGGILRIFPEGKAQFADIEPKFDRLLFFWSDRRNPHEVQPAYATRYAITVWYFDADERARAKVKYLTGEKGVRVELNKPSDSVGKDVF

Sequence	secondary structure in solution by circular dichroism [1]	Stopped-flow, 520 nm (PHD2) krise phase (PHD2) [s⁻¹]	Stopped-flow, 520 nm (PHD2) kfall phase (PHD2; listed as NODD HIF-2α)	Stopped-flow, 520 nm (PHD2) kfall phase (PHD2) [s⁻¹]	temperature above which the protein is unfolded (CD) ([1]; thermal denaturation between 10 and 90 °C, sodium phosphate buffer pH 8.0) [°C]
GSHMGSDLGKKLLEAARAGQDDEVRILMANGADVAAKDKNGSTPLHLAARNGHLEVVKLLLEAGADVNAQDKFGKTAFDISIDNGNEDLAEILQ [3CA, recombinant three-consensus ankyrin repeat protein produced in Escherichia coli]	folded in solution	–	–	–	–
EELAQLAPTPGDAIISLDF [HIF-2α NODD, 19-mer fragment (398–416) of the HIF-2α N-terminal oxygen-dependent degradation domain, PHD2 substrate]	–	0.003 ± 0.001	0.195 ± 0.003 s⁻¹ and 0.195 ± 0.009 s⁻¹	–	–
ELDLETLAPYIPMDGEDFQ [HIF-2α CODD, 19-mer fragment (523–541) of the HIF-2α C-terminal oxygen-dependent degradation domain, PHD2 substrate]	–	0.027 ± 0.001	–	0.450 ± 0.010	–
SDKNGSTPLHLAARNGHLEVVKLLLEHGADVNAQDKWGKTAFDISIDNGNEDLAEILQ [2CA, recombinant two-consensus ankyrin repeat protein produced in Escherichia coli]	does not possess significant secondary structure	–	–	–	> 10
